Reference: article PMC7045412, “Natural biased signaling of hydroxycarboxylic acid receptor 3 and G protein-coupled receptor 84” (Cell Communication and Signaling : CCS, 2020)

Experiments:
[1] = target: G protein-coupled receptor 84 (GPR84) (Homo sapiens, UniProt Q9NQS5); test: cAMP inhibition, DMR and ERK assays in receptor-transfected CHO-K1/HEK293-T cells; format: cell-based
[2] = target: T1, hydroxycarboxylic acid receptor 3 (HCA3) (Homo sapiens, UniProt P49019); test: DMR ([…]) in receptor-transfected CHO-K1 cells; format: cell-based
T1 construct: gene HCAR3
T1 sequence (P49019 whole entry): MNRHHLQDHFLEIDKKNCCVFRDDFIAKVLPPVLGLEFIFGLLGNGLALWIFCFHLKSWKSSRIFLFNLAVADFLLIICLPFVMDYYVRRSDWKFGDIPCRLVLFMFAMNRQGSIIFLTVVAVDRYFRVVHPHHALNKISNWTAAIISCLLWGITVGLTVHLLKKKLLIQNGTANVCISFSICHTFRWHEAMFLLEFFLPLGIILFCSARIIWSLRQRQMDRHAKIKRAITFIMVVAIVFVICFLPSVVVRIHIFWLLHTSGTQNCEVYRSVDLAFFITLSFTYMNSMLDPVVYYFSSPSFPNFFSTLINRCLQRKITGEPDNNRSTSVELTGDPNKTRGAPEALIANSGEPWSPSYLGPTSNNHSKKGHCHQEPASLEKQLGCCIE

Chain of G protein-coupled receptor 84 (GPR84) (Q9NQS5 whole entry): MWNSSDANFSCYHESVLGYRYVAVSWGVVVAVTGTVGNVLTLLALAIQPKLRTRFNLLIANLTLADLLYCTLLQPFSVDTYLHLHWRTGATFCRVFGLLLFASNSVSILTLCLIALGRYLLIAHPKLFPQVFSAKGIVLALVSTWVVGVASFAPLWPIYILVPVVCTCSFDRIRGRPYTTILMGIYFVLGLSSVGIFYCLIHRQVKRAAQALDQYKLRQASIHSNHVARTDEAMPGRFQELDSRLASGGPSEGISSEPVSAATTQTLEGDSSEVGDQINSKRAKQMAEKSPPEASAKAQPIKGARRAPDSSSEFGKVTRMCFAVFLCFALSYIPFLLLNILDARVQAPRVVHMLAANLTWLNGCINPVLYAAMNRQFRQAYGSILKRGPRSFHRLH

SMILES | EC50 [1] | DMR (250 μM) in receptor-transfected CHO-K1 cells [2]
CCCCCCCC(O)CC(=O)O (stereo not drawn) [3HDec, 3-hydroxydecanoic acid] | In contrast, C10 and 3HDec but not 3HO activated GPR84 | 
CCCCCCCCCC(=O)O [C10, decanoic acid] | C10 and 3HDec activated GPR84. | 
N[C@H](Cc1ccccc1)C(=O)O [D-Phe, D-phenylalanine] |  | dynasore affected the DMR-response of human and gorilla HCA3 to D-Phe and L-PLA in a similar manner
